Laboratory results published in patent US12208111B2 (LUNELLA BIOTECH, INC., priority 2018, dated 2025).
Where two headings read alike, the source gives them in different places.

Assays:
Format in all cases: cell-based, human
MRC-5 fibroblasts = test: DNA synthesis / cell cycle, Muse cell cycle kit; conditions: two-day treatment with BrdU
Method: The […] […] Autophagy and Cell cycle analysis: Autophagy (using MuseTMM Autophagy LC3-antibody based Kit, Merck Millipore) and cell cycle (Muse® Cell Cycle Kit, Merck Millipore) experiments were performed according to manufacturer's instructions.

MRC-5 cells = test: Beta-galactosidase staining; conditions: 8 days of BrdU treatment
Method: Furthermore, the inventors validated the use of BrdU-induced DNA-damage as being sufficient to induce cellular senescence. […] The results evidence that the cells treated with BrdU underwent cell cycle arrest, as evidenced by both a ˜70% reduction in the number of cells in S-phase, and the induction of beta-galactosidase activity.
Beta-Gal staining: Beta-Galactosidase staining of BrdU-treated MRC-5 cells was performed by Senescence B-Galactosidase Staining Kit (#9860, Cell Signalling Technology Inc.) and was done according to manufacturer's protocol.

senescent MRC-5 cells [1] = test: SRB assay, viability of BrdU-induced senescent MRC-5 fibroblasts
Method: (§1) Bromodeoxyuridine (5-bromo-2′-deoxyuridine), also known as BrdU, may be used to induce senescence. BrdU is an analog of the nucleoside thymidine commonly used to identify proliferating cells. BrdU induces controlled DNA damage, and drives cells towards senescence with high efficiency. The BrdU assay of the present approach calls for subjecting normal fibroblasts to prolonged culture (8-days) in the presence of BrdU at 100 μM to induce controlled DNA-damage and senescence. […] Then, isogenically-matched cultures of normal and senescent fibroblasts may be used for drug screening to identify drugs having senolytic activity. Senolytic activity may be detected using the sulforhodamine B assay, also known in the art as the SRB assay. This assay measures the amount of protein remaining attached to the tissue-culture dishes, and is a surrogate marker for cell viability. This approach may be used to rapidly screen compounds, including clinically-approved drugs, such as, for example, antibiotics. […] It should be appreciated that the present approach may be used to screen other compounds.
After that, the SRB assay was performed to determine the effects of the drug on cell viability. […] The scale bar in the upper-right of FIGS. 3B and 3C represents 20 μm.
After the 5-day exposure, the SRB assay was performed to determine the effects of the drug on cell viability. […] The * indicates p<0.05 in FIG. 4.
MRC-5 or BJ cells were plated into 24-well plates. Next day, half of the plate was treated with 100 μM of BrdU while control wells were treated with vehicle only (DMSO) and incubated for 8 days at 37° C. in a 5% CO2 humidified atmosphere. […] BrdU is washed out before the drug treatments.
Sulphorhodamine B assay: After the incubation of the plates cell viability was measured by Sulphorhodamine B assay (SRB). The assay is based on the measurement of cellular protein contents. Cells were fixed with 10% Trichloroacetic acid (TCA) for 1 hour at 4 °C, and were dried overnight at room temperature. Then, plates were incubated with SRB for 30 min, washed twice with 1% acetic acid and air dried for at least 1 h. Finally, the protein-bound dye was dissolved in a 10 mM Tris, pH 8.8, solution and read using a plate reader at 540-nm.

senescent MRC-5 cells [2] = test: xCELLigence real-time cell analysis, senescent (BrdU-treated) MRC-5 fibroblasts; conditions: 90 μM, 5 days after BrdU wash out
Text: (§2) In further application of the present approach, the selectivity of azithromycin towards senescent cells was validated using the xCELLigence system. Because senescent cells undergo the so-called senescence-associated secretory phenotype (SASP), which involves dramatic increases in the synthesis and secretion of proteins, the inventors assessed whether the protein measurement assay system under-estimates the senolytic activity of tested compounds. […] The normalized cell index for the control was noticeably higher immediately after treatment, and coincided with the BrdU-only curve until about hour 235. […] For the data shown in FIGS. 9A and 9B, the **** indicates p<0.001. The real-time xCELLigence assay system thus compliments the more static SRB assay, and offers a more direct visualization of the potential senolytic effects of compounds during drug screening. The xCELLigence assays were also used to confirm senolytic activity for roxithromycin and telithromycin. […] MRC-5 fibroblasts were used for these assays. […] Note that in FIG. 10A. * indicates p<0.01. From top to bottom at time 249 hours, the lines represent the control, BrdU-only, Control with roxithromycin (90 μM), and BrdU with roxithromycin. […] The same approach was used to confirm senolytic activity for telithromycin. […] This approach allows the quantification of the onset and kinetics of the cellular response. […]

[3] = tested on: normal control MRC-5 cells; test: xCELLigence real-time cell analysis, normal MRC-5 fibroblasts; conditions: 90 μM
Text: as §2

[4] = tested on: normal MRC-5 lung fibroblasts; test: SRB assay, viability of normal MRC-5 fibroblasts; conditions: 100 μM, 5 days
Method: as §1, with “compounds. […]” for “compounds.”
Sulphorhodamine B assay: After the incubation of the plates cell viability was measured by Sulphorhodamine B assay (SRB). […] Finally, the protein-bound dye was dissolved in a 10 mM Tris, pH 8.8, solution and read using a plate reader at 540-nm.

Row | SMILES | reduction of DNA synthesis (MRC-5 fibroblasts) [%] | beta-galactosidase staining (biomarker of cellular senescence) (MRC-5 cells) | senolytic activity in the screening assay (senescent MRC-5 cells [1]) | Viability of senescent MRC-5 cells (% versus control) (senescent MRC-5 cells [1]; 50 μM) [%] | Viability of senescent MRC-5 cells (% versus control) (senescent MRC-5 cells [1]; 100 μM) [%] | senescent MRC-5 cells targeted (final cell index) (senescent MRC-5 cells [2]) [%] | effect on viability of normal MRC-5 fibroblasts (final cell index) [3] | effect on viability of normal MRC-5 fibroblasts [4] | effect on senescent MRC-5 cell viability (senescent MRC-5 cells [1]; 50 μM, 5 days) | senolytic activity in the screening assay (senescent MRC-5 cells [1]; 100 μM)
1 | O=c1[nH]c(=O)n([C@H]2C[C@H](O)[C@@H](CO)O2)cc1Br [BrdU, 5-bromo-2′-deoxyuridine] | ~70 | positively stained | – | – | – | – | – | – | – | –
2 | CC[C@H]1OC(=O)[C@H](C)[C@@H](O[C@H]2C[C@@](C)(OC)[C@@H](O)[C@H](C)O2)[C@H](C)[C@@H](O[C@@H]2O[C@H](C)C[C@H](N(C)C)[C@H]2O)[C@](C)(O)C[C@@H](C)C(=O)[C@H](C)[C@@H](O)[C@]1(C)O [Erythromycin, erythromycin] | – | – | did not show any senolytic activity | 100 | 100 | – | – | – | – | –
3 | CC[C@H]1OC(=O)[C@H](C)C(=O)[C@H](C)[C@@H](O[C@@H]2O[C@H](C)C[C@H](N(C)C)[C@H]2O)[C@](C)(OC)C[C@@H](C)C(=O)[C@H](C)[C@H]2N(CCCCn3cnc(-c4cccnc4)c3)C(=O)O[C@]12C [Telithromycin, telithromycin] | – | – | showed beneficial senolytic activity | – | – | 100 | negligible impact | – | – | –
4 | CC[C@H]1OC(=O)[C@H](C)[C@@H](O[C@H]2C[C@@](C)(OC)[C@@H](O)[C@H](C)O2)[C@H](C)[C@@H](O[C@@H]2O[C@H](C)C[C@H](N(C)C)[C@H]2O)[C@](C)(O)C[C@@H](C)/C(=N\OCOCCOC)[C@H](C)[C@@H](O)[C@]1(C)O [Roxithromycin, roxithromycin] | – | – | – | 100 | 30.99 | 82 | minimal effect | small effect | no effect | have senolytic activity
